Assay results taken from patent publication US10376589B2, “Method for the treatment of a solid tumour” (The University of Sydney, priority 2011, dated 2019).
pIC50: −log10 of the molar value.

Legend:
Type in all cases: cell-based, human
[1] = tested on: PA-1 ovarian cancer cells; test: MTT cytotoxicity assay, 72 hrs; details: PA-1, MTT
Protocol: (§1) Human DLD-1 colon cancer cells and human PA-1 ovarian cancer cells were obtained from the American Type Culture Collection (Manassas, Va., USA). Cells were maintained in complete media (Advanced DMEM (Invitrogen) and supplemented with 2% foetal bovine serum (Sigma) and 2 mM Glutamax™ (Invitrogen)) at 37° C. in a humidified, 5% CO2 atmosphere. Spheroids were formed by plating 1.5×10^5 cells/ml onto agarose coated 96 well imaging plates (BD Biosciences) and the cells allowed to aggregate for 72 hrs at 37° C. in a humidified, 5% CO2 atmosphere resulting in the formation of single spheroid per well.
(§2) Active compounds and/or nanoparticles were diluted as required in cell media immediately prior to the assay. Cytotoxicity was determined using the MTT assay as follows. 1×10^5 cells were seeded onto each well of flat bottomed 96-well plates and allowed to attach overnight. Solutions of compounds+/−nanoparticles were added to triplicate wells at concentrations spanning a 4-log range and incubated for 72 hrs. MTT (3-(4, 5-dimethylthiazolyl-2)-2,5-diphenyltetrazolium bromide) (1.0 mM) was added to each well and were incubated for a further 4 hrs. The culture medium was removed from each well, DMSO (150 μL) was added, the plate shaken for 5 seconds and the absorbance measured immediately at 600 nm in a Victor^3V microplate reader (Perkin Elmer). IC50 values were determined as the drug concentration that reduced the absorbance to 50% of that in untreated control wells. At least three independent experiments were performed for each compound with triplicate readings in each experiment.

DLD-1 spheroids [2] = test: Cisplatin accumulation in spheroids by atomic absorption spectroscopy; details: cisplatin 6 ppm without iron oxide particles, 48 hours incubation
Protocol: as §1
DLD-1 spheroids prepared as per example 25 were dosed as with 100 μl of solution of complete media containing cisplatin and iron oxide nanoparticles from examples 1 and 2 to yield a final concentration of both cisplatin and iron oxide of 6 ppm. The spheroids with iron oxide particles and cisplatin were replaced in the incubator and maintained at 37° C. in a 5% CO2 atmosphere. After 48 hours incubation, the free cisplatin and nanoparticles in the media were washed with excess phosphate buffered saline.

DLD-1 colon cancer cells = test: MTT cytotoxicity assay, 72 hrs; details: DLD-1, MTT; for pIC50: Homo sapiens
Protocol: as §1, §2

DLD-1 spheroids [3] = test: Confocal imaging of fluorescent active compound diffusion into spheroids
Protocol: as §1
(§3) (a) To the suspension of the 3 day old spheroids from example 25, 100 μl of a solution containing nanoparticles incomplete media was added to each spheroid, to yield a final concentration of particles of 10 ppm in 200 μl total volume. he spheroids were replaced in an incubator at 37° C., 5% CO2. […]
DLD-1 spheroids from example 25 were either dosed with NP2 (example 2), which are particles coated with a stabiliser containing a phosphate anchoring group or NP19 or NP23 (examples 19 and 23), which are particles coated with a stabiliser that has no anchoring portion as per example 27b. The spheroid was then imaged by confocal microscopy (as per example 28) to visualise doxorubicin fluorescence.

PA-1 spheroids = test: Spheroid outgrowth assay
Protocol: as §1
as §3, with “CO2. After 24 hours incubation, the nanoparticles in the media were removed by washing with excess phosphate buffered saline prior to further experimentation.” for “CO2.”
Spheroids from example 25 were treated as per example 27b and 27c. […] Widefield fluorescence images of the brightfield and Hoechst 33342 stained nuclei were taken of the cells that had grown out from the spheroid (Olympus CellR). To quantitate the outgrowth, the number of nuclei within a 60° angle from the edge of the spheroid was counted. […]

N.N.[Cl][Pt][Cl] [Cisplatin]
pIC50 [1]: 6.22
concentration of cisplatin in the spheroids (DLD-1 spheroids [2]): 0.20 ppb

COc1cccc2c1C(=O)c1c(O)c3c(c(O)c1C2=O)C[C@@](O)(C(=O)CO)C[C@@H]3O[C@H]1C[C@H](N)[C@H](O)[C@H](C)O1 [Doxorubicin]
pIC50 (DLD-1 colon cancer cells): 6.00
pIC50 ([1]; Homo sapiens): 6.00
doxorubicin diffusion into the spheroid (DLD-1 spheroids [3]; doxorubicin alone): approximately 70 μm

O=C1c2c(O)ccc(O)c2C(=O)c2c(NCCNCCO)ccc(NCCNCCO)c21 [Mitoxantrone]
pIC50 (DLD-1 colon cancer cells): 7.40
pIC50 ([1]; Homo sapiens): 7.70
mitoxantrone diffusion into the spheroid (DLD-1 spheroids [3]; mitoxantrone alone): approximately 70 μm
effectiveness, co-administration versus administration of active compound delayed 24 hours (PA-1 spheroids; PA-1 spheroids): requires the co-administration of nanoparticles
effectiveness in PA-1 compared to DLD-1 spheroids (PA-1 spheroids; active compound co-administered with nanoparticles (examples 2, 3, 4, 5)): significantly more effective

O=c1[nH]cc(F)c(=O)[nH]1 [5-Fluorouracil]
pIC50 (DLD-1 colon cancer cells): 5.00
pIC50 ([1]; Homo sapiens): 5.00

CC(=O)O[C@H]1C(=O)[C@@]2(C)[C@H]([C@H](OC(=O)c3ccccc3)[C@]3(O)C[C@H](OC(=O)[C@H](O)[C@@H](NC(=O)c4ccccc4)c4ccccc4)C(C)=C1C3(C)C)[C@]1(OC(C)=O)CO[C@@H]1C[C@@H]2O [Paclitaxel]
72 hr IC50 (DLD-1 colon cancer cells; result in words): indeterminable*
72 hr IC50 ([1]; result in words): indeterminable*
